Experimental data published in patent US12173004B2, “Pharmaceutical compositions comprising heterocycle fused gamma carboline prodrugs” (INTRA-CELLULAR THERAPIES, INC., priority 2017, dated 2024).

Assays:
D1 = D1 (Homo sapiens (Human), UniProt P21728); settings: read-out: Ki (nM) D1
5-HT2 receptor = 5-HT2 receptor (Mus musculus (Mouse), UniProt P35363); assay: DOI-Induced Head Twitch Model in Mice; assay type: in vivo; settings: po, p.o. 0.5 hr before DOI, read-out: EC50 (mg/kg, p.o.) for reducing DOI-induced head twitches
GluR1 = GluR1 (Mus musculus (Mouse), UniProt P23818); assay: CNS phosphoprotein profile, nucleus accumbens: GluR1; assay type: in vivo, mice; settings: 3 mg/kg
Procedure: (§1) A comprehensive molecular phosphorylation study is also carried out to examine the central nervous system (CNS) profile of the compounds of Example 1 and Example 2. The extent of protein phosphorylation for selected key central nervous system proteins is measured in mice nucleus accumbens.
(§2) Mice were killed 30 minutes to 2 hours post-injection by focused microwave cranial irradiation, which preserves brain phosphoprotein as it exists at the time of death. Nucleus accumbens was then dissected from each mouse brain, sliced and frozen in liquid nitrogen. Samples were further prepared for phosphoprotein analysis via SDS-PAGE electrophoresis followed by phosphoprotein-specific immunoblotting, as described in Zhu H, et al., Brain Res. 2010 Jun. 25; 1342:11-23. Phosphorylation at each site was quantified, normalized to total levels of the protein (non-phosphorylated), and expressed as percent of the level of phosphorylation in vehicle-treated control mice.

D2 = D2 (Homo sapiens (Human), UniProt P14416); assay: biochemical; settings: read-out: maximum inhibition D2
ERK2 = ERK2 (Mus musculus (Mouse), UniProt P63085); assay: CNS phosphoprotein profile, nucleus accumbens: ERK2; assay type: in vivo, mice; settings: 3 mg/kg
Procedure: as §1, §2

[1] = target: TH (tyrosine hydroxylase) (Mus musculus (Mouse), UniProt P24529); assay: CNS phosphoprotein profile, nucleus accumbens: TH; assay type: in vivo, mice; settings: for increase in TH phosphorylation: Ser40, haloperidol at 2 mg/kg
Procedure: as §1, §2

NR2B = NR2B (Mus musculus (Mouse), UniProt Q01097); assay: CNS phosphoprotein profile, nucleus accumbens: NR2B; assay type: in vivo, mice; settings: 3 mg/kg, at 30-60 minutes
Procedure: as §1, §2

rats [2] = assay: Pulmonary function in rats; assay type: in vivo; settings: for RR (breaths/min): 60 minutes
in vivo [3] = settings: rat, iv, 1 mg/kg
Mice = assay: Mouse Marble-Burying Study (OCD Model); assay type: in vivo
Description: The marble burying test is used to measure repetitive and anxiety-related behavior in rodents. It is based on the observation that rats and mice will bury either harmful or harmless objects in their bedding, and it has been used as an animal model to measure the effect of pharmacological interventions in treatment of repetitive behavior disorders, such as OCD.
MPEP is a selective mGluR5 glutamate receptor antagonist. […] Mice in groups (1) are orally administered the vehicle, and mice in group (4) are given an intraperitoneal injection of MPEP just prior to the start of the test.
The test is conducted in rectangular cages with 4-5 cm of wood chip bedding in a room with the window shades lowered and the door closed to minimize distractions. Fifteen clean marbles are evenly spaced on top of the bedding in three rows of five marbles. One mouse is placed in each cage. The mouse and cage is left undisturbed for 30 minutes. At the end of the test, the mouse is removed and the number of marbles buried to at least ⅔ of their depth is counted.

C57 mice = assay: Formalin Paw Test (Inflammatory Pain Model); assay type: in vivo
in vivo [4] = settings: mouse
rats [5] = assay: Gastrointestinal motility, activated charcoal transit in rats; settings: morphine 5 mg/kg SC
[6] = Cmpd, PO 3.0 mg/kg, 30 min prior to formalin
[7] = Cmpd, SC 0.3 mg/kg, 30 min prior to formalin
[8] = Cmpd, SC 1.0 mg/kg, 30 min prior to formalin
[9] = Cmpd, SC 3.0 mg/kg, 30 min prior to formalin
[10] = morphine 5 mg/kg SC, 30 min prior to formalin

Sequence of D2 (P14416 with tags, fused parts or gaps limits assumed): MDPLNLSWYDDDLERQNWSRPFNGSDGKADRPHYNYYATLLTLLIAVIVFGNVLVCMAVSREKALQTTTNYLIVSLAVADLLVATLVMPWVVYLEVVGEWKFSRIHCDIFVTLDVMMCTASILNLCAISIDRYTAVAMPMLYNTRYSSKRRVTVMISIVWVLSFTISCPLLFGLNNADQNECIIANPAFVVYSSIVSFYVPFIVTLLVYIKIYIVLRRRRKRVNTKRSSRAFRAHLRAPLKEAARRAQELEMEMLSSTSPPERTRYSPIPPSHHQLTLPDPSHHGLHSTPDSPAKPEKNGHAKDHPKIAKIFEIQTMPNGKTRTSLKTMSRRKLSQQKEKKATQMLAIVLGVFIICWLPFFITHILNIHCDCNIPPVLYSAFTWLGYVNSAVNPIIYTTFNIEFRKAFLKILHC
Sequence of GluR1 (P23818 19-907 limits assumed): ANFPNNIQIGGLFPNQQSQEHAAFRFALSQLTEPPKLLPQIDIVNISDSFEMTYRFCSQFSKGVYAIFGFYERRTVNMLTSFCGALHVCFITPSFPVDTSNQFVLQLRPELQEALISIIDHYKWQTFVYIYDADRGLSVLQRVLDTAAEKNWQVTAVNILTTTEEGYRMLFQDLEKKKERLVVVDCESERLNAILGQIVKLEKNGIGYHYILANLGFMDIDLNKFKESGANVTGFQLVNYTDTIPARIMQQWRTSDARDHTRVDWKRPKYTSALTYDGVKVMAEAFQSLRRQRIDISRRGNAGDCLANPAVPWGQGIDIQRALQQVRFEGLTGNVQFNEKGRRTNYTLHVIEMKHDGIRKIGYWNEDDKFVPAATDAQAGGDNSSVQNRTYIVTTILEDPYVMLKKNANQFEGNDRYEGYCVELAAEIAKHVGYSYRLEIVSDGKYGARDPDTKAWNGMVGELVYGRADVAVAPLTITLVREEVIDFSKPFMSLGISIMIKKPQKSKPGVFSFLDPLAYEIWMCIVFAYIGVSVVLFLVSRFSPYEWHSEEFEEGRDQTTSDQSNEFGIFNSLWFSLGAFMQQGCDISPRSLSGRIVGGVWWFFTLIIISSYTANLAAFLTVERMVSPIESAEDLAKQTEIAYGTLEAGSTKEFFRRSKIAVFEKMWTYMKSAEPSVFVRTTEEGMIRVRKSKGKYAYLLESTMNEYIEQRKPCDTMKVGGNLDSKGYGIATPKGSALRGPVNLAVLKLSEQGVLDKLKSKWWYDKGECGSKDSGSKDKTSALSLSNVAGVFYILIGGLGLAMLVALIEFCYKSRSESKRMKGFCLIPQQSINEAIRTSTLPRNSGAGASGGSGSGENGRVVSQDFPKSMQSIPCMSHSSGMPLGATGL
Sequence of NR2B (Q01097 27-1482 limits assumed): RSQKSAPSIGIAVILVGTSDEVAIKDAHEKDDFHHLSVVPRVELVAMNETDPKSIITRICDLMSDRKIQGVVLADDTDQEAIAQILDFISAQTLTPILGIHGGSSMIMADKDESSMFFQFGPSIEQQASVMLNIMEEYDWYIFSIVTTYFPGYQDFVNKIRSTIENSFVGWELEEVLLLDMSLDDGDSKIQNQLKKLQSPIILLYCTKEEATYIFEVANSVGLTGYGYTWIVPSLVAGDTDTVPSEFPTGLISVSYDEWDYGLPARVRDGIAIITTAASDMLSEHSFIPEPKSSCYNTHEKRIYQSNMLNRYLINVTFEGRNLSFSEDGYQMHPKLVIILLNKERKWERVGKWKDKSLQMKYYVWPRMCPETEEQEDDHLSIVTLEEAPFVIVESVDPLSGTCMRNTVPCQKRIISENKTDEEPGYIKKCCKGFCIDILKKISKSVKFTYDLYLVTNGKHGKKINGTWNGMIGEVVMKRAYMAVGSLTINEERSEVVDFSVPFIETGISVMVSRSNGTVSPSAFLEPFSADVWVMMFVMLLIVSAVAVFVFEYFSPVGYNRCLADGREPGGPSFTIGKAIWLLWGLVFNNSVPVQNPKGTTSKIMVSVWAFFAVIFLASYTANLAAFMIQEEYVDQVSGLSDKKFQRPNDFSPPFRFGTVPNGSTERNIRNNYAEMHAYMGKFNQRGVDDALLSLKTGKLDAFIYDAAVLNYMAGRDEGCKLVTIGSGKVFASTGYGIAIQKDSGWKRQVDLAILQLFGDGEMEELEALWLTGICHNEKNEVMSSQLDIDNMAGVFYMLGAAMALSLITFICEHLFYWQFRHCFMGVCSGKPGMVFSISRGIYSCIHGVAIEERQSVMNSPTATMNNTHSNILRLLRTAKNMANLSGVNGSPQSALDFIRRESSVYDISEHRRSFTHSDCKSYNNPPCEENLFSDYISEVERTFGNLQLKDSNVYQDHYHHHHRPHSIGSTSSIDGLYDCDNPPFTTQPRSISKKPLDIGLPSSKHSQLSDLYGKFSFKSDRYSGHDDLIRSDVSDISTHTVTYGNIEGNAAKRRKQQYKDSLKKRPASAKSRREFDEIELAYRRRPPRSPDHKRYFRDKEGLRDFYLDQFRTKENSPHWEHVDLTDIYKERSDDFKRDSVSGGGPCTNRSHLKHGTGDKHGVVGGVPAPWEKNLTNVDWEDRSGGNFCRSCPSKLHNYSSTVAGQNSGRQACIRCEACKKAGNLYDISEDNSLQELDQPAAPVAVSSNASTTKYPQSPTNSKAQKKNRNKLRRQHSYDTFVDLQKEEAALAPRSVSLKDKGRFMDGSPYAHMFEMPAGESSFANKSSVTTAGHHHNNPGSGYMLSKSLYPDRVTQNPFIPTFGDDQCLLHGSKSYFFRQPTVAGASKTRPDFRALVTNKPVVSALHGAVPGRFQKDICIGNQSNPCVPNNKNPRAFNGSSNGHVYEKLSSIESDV

With O=C1CN2c3c(cccc3[C@@H]3CN(CCCC(=O)c4ccc(F)cc4)CC[C@@H]32)N1 [Example 1] as the molecule, how does the Ki (D1) read?
Its Ki is 22 nM.

And the ED50 (5-HT2 receptor)?
Its ED50 is 0.23 mg/kg.

And the “GluR1 phosphorylation at Ser845” value (GluR1)?
Its value is “slight increase”.

What about the inhibition at […] (D2) of the same molecule?
Its inhibition at […] is 47%.

What about the “ERK2 phosphorylation at Thr183 and Tyr185” value (ERK2) of the same molecule?
The value was “slight decrease”.

And the “effect on tyrosine hydroxylase phosphorylation at Ser40” value ([1]; 3 mg/kg, at 30 minutes or 60 minutes)?
Its value is “neither the compound of Example 1 nor of Example 2 has a significant effect”.

What about the “effect on NR2B phosphorylation at Tyr1472” value (NR2B) of the same molecule?
Its value is “neither the compound of Example 1 nor of Example 2 has a significant effect”.

For O=C1CN2c3c(cccc3[C@@H]3CN(CCCOc4ccc(F)cc4)CC[C@@H]32)N1 [Example 2, (6bR,10aS)-8-(3-(4-fluorophenoxy)propyl)-6b,7,8,9,10,10a-hexahydro-1H-pyrido[3′,4′:4,5]pyrrolo[1,2,3-de]quinoxalin-2(3H)-one], which ED50 (5-HT2 receptor) is on record?
Its ED50 is 0.44 mg/kg.

What about the “RR (breaths/min)” value (rats [2]; 0.3 mg/kg s.c.) of the same molecule?
The value was 181 breaths/min.

And the “RR (breaths/min)” value (rats [2]; 1.0 mg/kg s.c.)?
The value was 203 breaths/min.

What about the “RR (breaths/min)” value (rats [2]; 3.0 mg/kg s.c.) of the same molecule?
The value was 190 breaths/min.

What about the “respiratory rate, tidal volume and minute volume compared to vehicle control” value (rats [2]; 0.3, 1.0 and 3.0 mg/kg s.c., 0, 15, 60, 120, and 240 minutes) of the same molecule?
The value was “no significant differences”.

What about the bioavailability (in vivo [3]) of the same molecule?
Its bioavailability is 100%.

What about the “Marbles Buried” value (Mice; 0.3 mg/kg orally 30 minutes prior, of fifteen marbles, 30 min) of the same molecule?
The value was 9.3.

And the “Mean Behavior Rating (0-4), 0-10 Min” value (C57 mice; [6])?
Its value is 0.9.

What about the “Mean Behavior Rating (0-4), 0-6 min” value (C57 mice; [6]) of the same molecule?
The value was 1.5.

And the “Mean Behavior Rating (0-4), 11-40 min” value (C57 mice; [6])?
Its value is 0.8.

And the “Mean Behavior Rating (0-4), 16-40 min” value (C57 mice; [6])?
Its value is 0.9.

And the “Mean Behavior Rating (0-4), 0-6 min” value (C57 mice; [7])?
Its value is 2.3.

What about the “Mean Behavior Rating (0-4), 11-40 min” value (C57 mice; [7]) of the same molecule?
Its value is 1.0.

And the “Mean Behavior Rating (0-4), 16-40 min” value (C57 mice; [7])?
Its value is 1.2.

And the “Mean Behavior Rating (0-4), 0-10 Min” value (C57 mice; [8])?
Its value is 1.3.

And the “Mean Behavior Rating (0-4), 0-6 min” value (C57 mice; [8])?
The value was 1.9.

What about the “Mean Behavior Rating (0-4), 11-40 min” value (C57 mice; [8]) of the same molecule?
Its value is 1.0.

What about the “Mean Behavior Rating (0-4), 16-40 min” value (C57 mice; [8]) of the same molecule?
The value was 1.1.

What about the “Mean Behavior Rating (0-4), 0-10 Min” value (C57 mice; [9]) of the same molecule?
The value was 0.8.

What about the “Mean Behavior Rating (0-4), 0-6 min” value (C57 mice; [9]) of the same molecule?
The value was 1.3.

What about the “Mean Behavior Rating (0-4), 11-40 min” value (C57 mice; [9]) of the same molecule?
The value was 0.1.

And the “Mean Behavior Rating (0-4), 16-40 min” value (C57 mice; [9])?
The value was 0.1.

And the “Mean Behavior Rating (0-4), 0-10 Min” value (C57 mice; mouse, in vivo)?
Its value is 1.5.

What about the Tmax (in vivo [4]; brain, po, 10 mg/kg) of the same molecule?
The Tmax was 15 min.

What about the Tmax (in vivo [4]; brain, sc, 0.1 mg/kg) of the same molecule?
Its Tmax is 60 min.

And the Tmax (in vivo [4]; plasma, po, 10 mg/kg)?
The Tmax was 15 min.

What about the Tmax (in vivo [4]; plasma, sc, 0.1 mg/kg) of the same molecule?
The Tmax was 30 min.

For Cc1cccc(C#Cc2ccccc2)n1 [MPEP, 2-methyl-6-(phenylethynyl)pyridine, reference compound], which “Marbles Buried” value (Mice; 20 mg/kg intraperitoneal just prior to test, positive control) is on record?
The value was 0.2.

Which “Mean Behavior Rating (0-4), 0-10 Min” value (C57 mice; [10]) does the source give for CN1CC[C@]23c4c5ccc(O)c4O[C@H]2[C@@H](O)C=C[C@H]3[C@H]1C5 [Morphine, morphine, reference compound] here?
The value was 1.1.

What about the “Mean Behavior Rating (0-4), 0-6 min” value (C57 mice; [10]) of the same molecule?
Its value is 1.7.

And the “Mean Behavior Rating (0-4), 11-40 min” value (C57 mice; [10])?
The value was 0.2.

What about the “Mean Behavior Rating (0-4), 16-40 min” value (C57 mice; [10]) of the same molecule?
The value was 0.2.

What about the “reduction in gastric motility” value (rats [5]) of the same molecule?
The value was ~50%.

For O=C(CCCN1CCC(O)(c2ccc(Cl)cc2)CC1)c1ccc(F)cc1 [haloperidol], which “increase in TH phosphorylation” value [1] is on record?
The value was “greater than 400%”.

With Cc1nc2n(c(=O)c1CCN1CCC(c3noc4cc(F)ccc34)CC1)CCCC2 [risperidone] as the molecule, how does the “increase in TH phosphorylation” value [1] read?
Its value is “greater than 500%”.
